Each structure is given as a SMILES string.

What is called melting point is the temperature of the solid-liquid transition.

In the case of `Clc1ccc(N2CCC3(CCNCC3)CC2)nc1`, the melting point fell in the range of 71.2 to 72.9 °C.

Molecule `Brc1cccc(N2CCC3(CCNCC3)CC2)n1.O=C(O)/C=C/C(=O)O` displayed a melting point of 198.5 to 199.3 °C.

As for `Clc1cccc(N2CCC3(CCNCC3)CC2)c1Cl`, the melting point was 80.4 to 81.9 °C.

For `Fc1ccc(N2CCC3(CCNCC3)CC2)cc1Cl.O=C(O)/C=C/C(=O)O`, the melting point fell in the range of 201.4 to 202.2 °C.

`Brc1ccc(N2CCC3(CCNCC3)CC2)nc1` registered a melting point of 103 to 105 °C.

In turn, `COc1ccc2cc(N3CCC4(CCNCC4)CC3)ccc2c1` [3rd compound of method C, 3-(6-Methoxy-naphthalen-2-yl)-3,9-diaza-spiro[5.5]undecane] registered a melting point of 175.8 to 177.6 °C.

Take `Clc1ccc(N2CCC3(CCNCC3)CC2)cc1Cl` [4th compound of method C, 3-(3,4-Dichloro-phenyl)-3,9-diaza-spiro[5.5]undecane]: the melting point was in the range of 209 to 212 °C.

Turning to `Clc1ccc(N2CCC3(CCNCC3)CC2)cc1` [7th compound of method C, 3-(4-Chloro-phenyl)-3,9-diaza-spiro[5.5]undecane], the melting point was 95.5 to 97.4 °C.

Turning to `c1ccc2cc(N3CCC4(CCNCC4)CC3)ccc2c1` [10th compound of method C, 3-Naphthalen-2-yl-3,9-diaza-spiro[5.5]undecane], the melting point was in the range of 158 to 162 °C.

For the origin of these results see patent US7943630B2, “3,9-diaza-spiro[5.5]undecane derivatives and their use as monoamine neurotransmitter re-uptake inhibitors” (Neurosearch A/S, priority 2005, dated 2011).
